6 compounds from publication PMC4822204 (Biomolecular Detection and Quantification, 2015) can be followed below.

Format in all cases: biochemical
Test [1] has as its target T1, alkaline phosphatase from bovine intestine (Bos taurus, UniProt P19111). Put plainly: AP colorimetric assay. The conditions noted are these: detergent at two concentrations above its critical micelle concentration.
Target sequence in this assay (P19111 20-533): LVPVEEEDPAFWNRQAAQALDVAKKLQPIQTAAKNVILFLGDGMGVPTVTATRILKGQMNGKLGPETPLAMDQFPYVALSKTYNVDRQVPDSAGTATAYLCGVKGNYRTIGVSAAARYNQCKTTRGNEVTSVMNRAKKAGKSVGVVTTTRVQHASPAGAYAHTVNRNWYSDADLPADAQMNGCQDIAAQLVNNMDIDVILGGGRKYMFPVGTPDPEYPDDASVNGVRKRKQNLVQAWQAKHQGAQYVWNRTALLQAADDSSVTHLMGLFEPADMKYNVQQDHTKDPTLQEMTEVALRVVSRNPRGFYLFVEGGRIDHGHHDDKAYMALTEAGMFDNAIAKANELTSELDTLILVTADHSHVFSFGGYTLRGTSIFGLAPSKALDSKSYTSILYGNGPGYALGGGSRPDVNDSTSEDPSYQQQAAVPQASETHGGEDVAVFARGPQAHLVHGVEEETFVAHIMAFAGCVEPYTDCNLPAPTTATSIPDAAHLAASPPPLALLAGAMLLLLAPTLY
Test [2] has as its system alkaline phosphatase from bovine intestine. In words: Reversibility test by rapid dilution of the enzyme-inhibitor complex.
Test [3] concerns the target T1, alkaline phosphatase from bovine intestine. In words: AP fluorometric assay. The following applies: for IC50: 60 min; for IC50 / apparent AP Vmax / Km / Vmax: ± 95% confidence interval; for apparent AP Vmax: substrate DiFMUP; for Hill coefficient / kcat / Km / Vmax: hydrolysis of DiFMUP by AP.
Target sequence in this assay (P19111 20-506 limits assumed): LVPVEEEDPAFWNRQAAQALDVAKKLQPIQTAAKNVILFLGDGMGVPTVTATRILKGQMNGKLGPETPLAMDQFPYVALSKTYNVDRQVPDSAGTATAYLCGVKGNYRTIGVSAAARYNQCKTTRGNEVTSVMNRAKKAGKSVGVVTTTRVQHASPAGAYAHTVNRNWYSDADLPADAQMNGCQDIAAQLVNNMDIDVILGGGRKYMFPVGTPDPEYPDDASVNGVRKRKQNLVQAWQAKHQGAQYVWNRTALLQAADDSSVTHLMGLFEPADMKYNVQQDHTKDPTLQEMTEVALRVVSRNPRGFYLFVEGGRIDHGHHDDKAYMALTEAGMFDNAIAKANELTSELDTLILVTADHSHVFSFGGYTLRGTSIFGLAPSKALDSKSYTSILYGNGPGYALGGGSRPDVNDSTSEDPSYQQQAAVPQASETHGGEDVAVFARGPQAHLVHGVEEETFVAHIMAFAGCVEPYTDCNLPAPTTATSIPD

Take Triton X-100: the “increase in AP activity” value in test [1] is reported as “up to 40%”.
Still for that read-out and setting: under Tween 20 stands “up to 40%”.
In the case of `C[C@H](CCC(=O)NCCC[N+](C)(C)CCCS(=O)(=O)[O-])[C@H]1CC[C@H]2[C@@H]3[C@H](O)C[C@@H]4C[C@H](O)CC[C@]4(C)[C@H]3C[C@H](O)[C@]12C` [CHAPS], in test [1], the “increase in AP activity” value is given as “up to 40%”.
As to `[Na+].[Na+].[Na+].[O]=[V]([O-])([O-])[O-]` [Na3VO4, sodium orthovanadate], the reversibility of inhibition result in test [2] is on record as “rapidly reversible”. Moreover, the IC50 (usually the midpoint of a concentration-inhibition curve) in test [3] (0.025 μM DiFMUP, pH 6.5, 37 °C) came out at 1000 ± 400 nM; in test [3] (0.050 μM DiFMUP, pH 6.5, 37 °C) it was 1500 ± 400 nM; in test [3] (0.100 μM DiFMUP, pH 6.5, 37 °C), 1600 ± 300 nM; in test [3] (0.200 μM DiFMUP, pH 6.5, 37 °C) it was 2300 ± 400 nM; in test [3] (0.400 μM DiFMUP, pH 6.5, 37 °C), 4000 ± 400 nM; in test [3] (0.800 μM DiFMUP, pH 6.5, 37 °C), 6100 ± 900 nM. Also, it took 11000 ± 3000 nM to reach half-maximal inhibition in test [3] (1.600 μM DiFMUP, pH 6.5, 37 °C) (IC50). The mode of inhibition result in test [3] (IC50 rises with DiFMUP concentration, apparent KM but not Vmax rises) is “competitive”. The “apparent AP Vmax” value worked out at 567 ± 18 RFU min^−1 in test [3] (Na3VO4 0.084 μM); 561 ± 35 RFU min^−1 in test [3] (Na3VO4 0.250 μM); 566 ± 24 RFU min^−1 in test [3] (Na3VO4 0.760 μM); 546 ± 32 RFU min^−1 in test [3] (Na3VO4 2.28 μM); 513 ± 53 RFU min^−1 in test [3] (Na3VO4 6.68 μM).
On to `C[S+](C)[O-]` [DMSO], for which, in test [3] (DMSO concentrations up to 1.5%), the “decrease in reaction velocity” value was “less than 10%”.
Turning to `Cc1cc(=O)oc2c(F)c(OP(=O)(O)O)c(F)cc12` [DiFMUP, 6,8-difluoro-4-methylumbelliferyl phosphate], in test [3] (pH 6.5, 37 °C), the Hill coefficient (commonly a measure of the steepness of the concentration-response curve) worked out at 1; the kcat (in general, the number of substrate molecules converted per active site and unit of time at saturation) worked out at 37 s⁻¹; the Km – broadly, the substrate concentration at which the rate is half of its maximum – came to 0.2 ± 0.04 µM; the Vmax (commonly the top rate of the reaction or transport when substrate is in excess) amounted to 32 ± 2 µmol/min/mg. Also, in test [3] (pH 7.0, 37 °C), the Hill coefficient is 1, the kcat is 82 s⁻¹, the Km worked out at 0.5 ± 0.04 µM and the Vmax is 71 ± 3 µmol/min/mg. Moreover, in test [3] (pH 7.5, 37 °C), the Hill coefficient came to 1, the kcat came out at 147 s⁻¹, the Km stood at 1.4 ± 0.2 µM and the Vmax was 126 ± 3 µmol/min/mg. For the same compound, in test [3] (pH 8.0, 37 °C), the Hill coefficient was determined as 1, the kcat was 211 s⁻¹, the Km was determined as 2.8 ± 0.1 µM and the Vmax was 181 ± 1 µmol/min/mg.
